# Measured values as given in patent publication US20060182792A1, “Liposome-forming compositions” (priority 2002, published 2006).
# Experiment: Absolute oral bioavailability of liposomally administered octreotide per os in rats
# Experimental: Wistar rats (with approximately 250 g body weight) fast for 12 hours and receive 0.5 ml of the aqueous mixture of the composition according to the invention by pharyngeal probe so that the administered amount of octreotide is 100 μg per animal. As a comparative test 100 μg of free octreotide was dissolved in 0.5 ml of PBS and administered via pharyngeal probe. Blood samples were taken after 30, 60, 120 and 240 min. retroorbitally. An i.v. injection of 2 μg of octreotide per animal provided a control in order to determine the absolute bioavailability. […] Six animals were tested for each formulation.
compound,measurement,setting,value
"C[C@@H](O)[C@@H]1NC(=O)[C@H](CCCCN)NC(=O)[C@@H](Cc2c[nH]c3ccccc23)NC(=O)[C@H](Cc2ccccc2)NC(=O)[C@@H](NC(=O)[C@H](N)Cc2ccccc2)CSSC[C@@H](C(=O)N[C@H](CO)[C@@H](C)O)NC1=O [Free, octreotide]",bioavailability,"Wistar, rat, in vivo, 100 μg per animal",0.5%
same,Gain factor of the absolute bioavailability vs free octreotide,"free octreotide, oral, 0.1 mg/animal, lipid/peptide 0",1
